Test results: article PMC12864786 (Nature Communications, 2026)
Values belong to the molecule of their own block, whether it stands above or below them.

What was measured:
CHU = molecular target: T1, CHU (Cytophaga hutchinsonii, UniProt A0A6N4SMB5); experiment: HPLC product distribution, end point […] min; assay type: biochemical; conditions: 4 mM nucleotide, PolyP-60 65 mM phosphate units, 10 mM Mn2+, 50 mM MOPS-NaOH pH 7.0, 37 °C
T1 sequence (A0A6N4SMB5 1-305): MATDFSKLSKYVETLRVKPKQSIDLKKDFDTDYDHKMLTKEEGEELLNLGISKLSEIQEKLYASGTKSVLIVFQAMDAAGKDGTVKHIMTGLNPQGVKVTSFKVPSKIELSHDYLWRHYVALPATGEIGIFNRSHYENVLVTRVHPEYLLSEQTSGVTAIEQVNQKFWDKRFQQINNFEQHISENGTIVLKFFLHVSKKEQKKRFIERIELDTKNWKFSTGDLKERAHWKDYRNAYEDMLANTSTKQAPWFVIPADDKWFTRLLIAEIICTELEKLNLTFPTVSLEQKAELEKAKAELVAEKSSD

ARE = molecular target: T2, ARE (Algibacter luteus, UniProt A0A1M6FUJ9); experiment: HPLC product distribution, end point […] min; assay type: biochemical; conditions: 4 mM nucleotide, PolyP 65 mM phosphate units, 10 mM Mn2+, 50 mM MOPS-NaOH pH 7.0, 37 °C
T2 sequence (A0A1M6FUJ9 1-283): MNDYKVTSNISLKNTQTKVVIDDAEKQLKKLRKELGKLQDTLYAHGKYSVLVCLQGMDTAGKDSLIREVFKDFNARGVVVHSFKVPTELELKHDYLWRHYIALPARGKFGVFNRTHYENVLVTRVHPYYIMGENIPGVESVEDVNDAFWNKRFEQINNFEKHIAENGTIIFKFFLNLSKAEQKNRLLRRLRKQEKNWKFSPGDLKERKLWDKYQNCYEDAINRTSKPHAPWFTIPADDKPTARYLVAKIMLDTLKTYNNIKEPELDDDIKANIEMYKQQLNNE

[1] = molecular target: MBP-tagged Class III PPK2 enzyme from Pedobacter sp. (PED), full-length (Pedobacter sp.); experiment: AUC
AUC = molecular target: the molecule itself; experiment: AUC

Molecule: Nc1ncnc2c1ncn2[C@@H]1O[C@H](COP(=O)(O)O)[C@@H](O)[C@H]1O [AMP]
product distribution (CHU): Product distribution of MAN and CHU under the same conditions

Molecule: Nc1nc2c(ncn2[C@@H]2O[C@H](COP(=O)(O)O)[C@@H](O)[C@H]2O)c(=O)[nH]1 [GMP]
Percent conversion to NTP (ARE): PED and ARE exhibit weak activity against CMP, GDP, and GMP
product distribution (CHU): CHU produces significant amounts of GPn (guanine nucleotides with four or more phosphate groups)

stoichiometry N [1]: 2
Molecule: MBP-tagged Class III PPK2 enzyme from Pedobacter sp. (PED), full-length

B1: MBP-tagged Class III PPK2 enzyme from Cytophaga hutchinsonii (CHU), full-length (enzyme, UniProt A0A6N4SMB5 1-305, looked up)
chain: T1 sequence (A0A6N4SMB5 1-305)
stoichiometry N (AUC): 2
